Laboratory results taken from patent publication US20210047324A1 (Aptinyx Inc., priority 2018, published 2021).

Legend:
[1] = molecular target: T1, NMDAR2A (Homo sapiens, UniProt Q12879); experiment: NMDAR agonist assay, [3H]MK-801 binding, NMDAR2A expressing HEK cell membranes; type: biochemical; parameters: key to NMDAR2A B: log EC50: 0=−; ≥1×10^−9 M (e.g., −8)=+; <1×10^−9 M (e.g., −10)=++; conditions: 50 μM glutamate; for Emax: 0.25 h, relative to 1 mM glycine, read-out: NMDAR2A A: % maximal [3H]MK-801 binding relative to 1 mM glycine
T1 construct: expressed in transfected cells; host or cells: HEK cells (membrane extract)
Procedure, shortened: (§1)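 Membranes from HEK cells (300 μg protein) preincubated 15 min with 50 μM glutamate plus compound (1×10^−15–1×10^−7 M) or 1 mM glycine, then with 0.3 μCi [3H]MK-801 for 15 min at 25° C. (nonequilibrium); filter-bound DPM, baseline-subtracted, expressed as % of 1 mM glycine; EC50 and % maximum from three-parameter fit.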

[2] = molecular target: T2, NMDAR2B (Homo sapiens, UniProt Q13224); experiment: NMDAR agonist assay, [3H]MK-801 binding, NMDAR2B expressing HEK cell membranes; type: biochemical; conditions: 50 μM glutamate; for EC50: read-out: NMDAR2B B: log EC50 (converted); for Emax: relative to 1 mM glycine, read-out: NMDAR2B A: % maximal [3H]MK-801 binding relative to 1 mM glycine
T2 construct: expressed in transfected cells; host or cells: HEK cells (membrane extract)
Procedure, shortened: as §1

[3] = molecular target: T3, NMDAR2C (Homo sapiens, UniProt Q14957); experiment: NMDAR agonist assay, [3H]MK-801 binding, NMDAR2C expressing HEK cell membranes; type: biochemical; conditions: 50 μM glutamate; for EC50: read-out: NMDAR2C B: log EC50 (converted)
T3 construct: expressed in transfected cells; host or cells: HEK cells (membrane extract)
Experimental: (§2) Assays were conducted as described by Moskal et al., “GLYX-13: a monoclonal antibody-derived peptide that acts as an N-methyl-D-aspartate receptor modulator,” Neuropharmacology, 49, 1077-87, 2005. These studies were designed to determine if the test compounds act to facilitate NMDAR activation in NMDAR2A, NMDAR2B, NMDAR2C or NMDAR2D expressing HEK cell membranes as measured by increases in [^3H]MK-801 binding.
(§3) In the assay, 300 μg of NMDAR expressing HEK cell membrane extract protein was preincubated for 15 minutes at […] in the presence of saturating concentrations of glutamate (50 μM) and varying concentrations of test compound (1×10^−15M-1×10^−7M), or 1 mM glycine. Following the addition of 0.3 μCi of [3H]MK-801 (22.5 Ci/mmol), reactions were again incubated for 15 minutes at 25° C. (nonequilibrium conditions). Bound and free [3H]MK-801 were separated via rapid filtration using a Brandel apparatus.
(§4) In analyzing the data, the DPM (disintegrations per minute) of [3H]MK-801 remaining on the filter were measured for each concentration of test compound or for 1 mM glycine. The DPM values for each concentration of a ligand (N=2) were averaged. The baseline value was determined from the best fit curve of the DPM values modeled using the GraphPad program and the log(agonist) vs. response (three parameters) algorithm was then subtracted from all points in the dataset. The % maximal [^3H]MK-801 binding was then calculated relative to that of 1 mM glycine: all baseline subtracted DPM values were divided by the average value for 1 mM glycine. The EC50 and % maximal activity were then obtained from the best fit curve of the % maximal [3H]MK-801 binding data modelled using the GraphPad program and the log(agonist) vs. response (three parameters) algorithm.
(§5) The tables below summarize the results for the wild type […] NMDAR2A, NMDAR2B, NMDAR2C, and NMDAR2D, and whether the compound is not an agonist (−), is an agonist (+), or is a strong agonist (++), where column A is based on the % maximal [3H]MK-801 binding relative to 1 mM glycine (−=0; <100%=+; and >100%=++); and column B is based on log EC50 values (0=−; ≥1×10^−9 M (e.g., −8)=+; and <1×10^−9 M (e.g., −10)=++).

[4] = molecular target: T4, NMDAR2D (Homo sapiens, UniProt O15399); experiment: NMDAR agonist assay, [3H]MK-801 binding, NMDAR2D expressing HEK cell membranes; type: biochemical; conditions: 50 μM glutamate; relative to 1 mM glycine
T4 construct: expressed in transfected cells; host or cells: HEK cells (membrane extract)
Experimental: as §2, §3, §4, §5

[5] = molecular target: T5, NMDAR2D (Homo sapiens, UniProt O15399+Q05586); experiment: as above; type: biochemical; conditions: 50 μM glutamate; read-out: NMDAR2D B: log EC50 (converted)
T5 construct: expressed in transfected cells; host or cells: HEK cells (membrane extract)
Experimental: as §2, §3, §4, §5

[6] = IV pharmacokinetics in Sprague Dawley rats; type: in vivo; conditions: Sprague-Dawley, rat, in vivo, iv, 2 mg/kg, normal saline; for Cmax: read-out: Cmax; for Vd: read-out: Vss
Experimental: Sprague Dawley rats were dosed intravenously using a normal saline formulation containing 2 mg/kg of the compounds identified in the below table. The table below summarizes the results of the IV pharmacokinetics.

[7] = Oral pharmacokinetics in Sprague Dawley rats (plasma, brain, CSF); type: in vivo; conditions: rat, 10 mg/kg; for Tmax / AUC(0-t) / bioavailability / Cmax: Sprague-Dawley, po, plasma; for Tmax / AUC(0-t) / Cmax / CSF Cmax / Brain Cmax: per os; for Tmax: read-out: Tmax; for bioavailability: per os 10 mg/kg; for Cmax: read-out: Cmax
Experimental: In another experiment, Sprague Dawley rats were dosed per os (oral gavage) using a normal saline formulation containing 10 mg/kg of the compounds identified in the table below. Plasma, brain, and CSF samples were analyzed at various time points over a 24 hour period. The table below summarizes the results of the oral pharmacokinetics, where the first three values (Tmax, Cmax and AUClast) are plasma values.

[8] = test system: Sprague Dawley rats; experiment: Porsolt forced swim test; type: in vivo; conditions: 0.1 mg/kg
Experimental: A non-clinical in vivo pharmacology study (Porsolt assay) was performed to measure antidepressant-like effects. The study allowed for the evaluation of the effects of each compound on the Porsolt forced swim test as assessed by the rats' response (reduced floating time) during a 5-minute swimming test.
Male 2-3 month old Sprague Dawley rats were used (Harlan, Indianapolis, Ind.). Rats were housed in Lucite cages with aspen wood chip bedding, maintained on a 12:12 light:dark cycle (lights on at 5 AM), and given ad libitum access to Purina lab chow (USA) and tap water throughout the study.
The Porsolt forced swim test adapted for use in rats was performed as described by Burgdorf et al., (The long-lasting antidepressant effects of rapastinel (GLYX-13) are associated with a metaplasticity process in the medial prefrontal cortex and hippocampus. Neuroscience 308:202-211, 2015). Animals were placed in a 46 cm tall×20 cm in diameter clear glass tube filled to 30 cm with tap water (23±1° C.) for 15 min on the first day (habituation) and 5 min on the subsequent test day. Animals were tested 1 h or 24 h post-dosing with the test compounds or vehicle control (0.5% sodium carboxymethyl cellulose in 0.9% sterile saline). A subset of compounds tested at 1 h post-dosing was tested again 1 wk post-dosing. Animals received a 15 min habituation session 1 day before the first 5 min test. Water was changed after every other animal. Animals were videotaped, and floating time as defined as the minimal amount of effort required to keep the animals head above water was scored offline by a blinded experimenter with high inter-rater reliability (Pearson's r >0.9).

[9] = Microsomal stability (Human); type: in vitro ADME; conditions: after 60 minutes
Experimental: (§6) Microsomal stability of disclosed compounds was investigated. The following table indicates the percent of compound remaining after 60 minutes.

[10] = Microsomal stability (Rat); type: in vitro ADME; conditions: after 60 minutes
Experimental: as §6

[11] = Plasma stability (Human); type: in vitro ADME; conditions: after 60 minutes
Experimental: (§7) Plasma stability of disclosed compounds was investigated. The following table indicates the percent of compound remaining after 60 minutes.

[12] = Plasma stability (Rat); type: in vitro ADME; conditions: after 60 minutes
Experimental: as §7

T3 sequence (Q14957 20-1233, species assumed, other chains not shown): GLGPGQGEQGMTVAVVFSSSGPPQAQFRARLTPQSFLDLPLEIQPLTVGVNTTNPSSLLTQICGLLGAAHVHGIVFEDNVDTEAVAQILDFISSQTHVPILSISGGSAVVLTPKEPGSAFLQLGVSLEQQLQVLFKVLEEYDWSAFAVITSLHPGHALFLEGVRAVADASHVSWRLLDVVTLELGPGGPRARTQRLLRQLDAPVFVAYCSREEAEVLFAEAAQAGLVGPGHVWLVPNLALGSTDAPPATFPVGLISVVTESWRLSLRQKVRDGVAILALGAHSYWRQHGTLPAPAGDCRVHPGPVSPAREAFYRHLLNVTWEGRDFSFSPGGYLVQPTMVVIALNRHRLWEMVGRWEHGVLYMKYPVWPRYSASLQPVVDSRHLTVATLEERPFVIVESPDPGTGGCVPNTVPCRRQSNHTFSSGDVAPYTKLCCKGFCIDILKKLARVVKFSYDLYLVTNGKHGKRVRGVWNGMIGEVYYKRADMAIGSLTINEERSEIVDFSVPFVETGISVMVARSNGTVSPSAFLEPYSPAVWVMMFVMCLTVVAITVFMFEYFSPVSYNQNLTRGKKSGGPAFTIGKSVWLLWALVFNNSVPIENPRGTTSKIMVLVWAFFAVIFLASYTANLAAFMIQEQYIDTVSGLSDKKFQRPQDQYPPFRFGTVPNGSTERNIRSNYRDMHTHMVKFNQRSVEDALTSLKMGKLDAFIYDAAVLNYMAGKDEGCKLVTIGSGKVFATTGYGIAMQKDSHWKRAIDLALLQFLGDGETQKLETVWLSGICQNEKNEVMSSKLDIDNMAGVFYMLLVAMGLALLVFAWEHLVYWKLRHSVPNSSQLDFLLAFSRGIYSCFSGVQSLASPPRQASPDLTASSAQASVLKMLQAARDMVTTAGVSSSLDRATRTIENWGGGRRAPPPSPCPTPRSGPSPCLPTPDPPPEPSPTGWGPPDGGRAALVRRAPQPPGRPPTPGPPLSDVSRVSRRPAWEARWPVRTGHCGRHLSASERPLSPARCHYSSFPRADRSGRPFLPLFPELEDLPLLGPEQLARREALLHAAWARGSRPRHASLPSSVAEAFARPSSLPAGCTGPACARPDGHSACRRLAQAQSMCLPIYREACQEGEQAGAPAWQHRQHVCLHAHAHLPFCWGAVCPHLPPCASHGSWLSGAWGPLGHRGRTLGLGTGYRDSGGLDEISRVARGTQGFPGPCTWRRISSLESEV
T1 sequence (Q12879 23-1464, species assumed, other chains not shown): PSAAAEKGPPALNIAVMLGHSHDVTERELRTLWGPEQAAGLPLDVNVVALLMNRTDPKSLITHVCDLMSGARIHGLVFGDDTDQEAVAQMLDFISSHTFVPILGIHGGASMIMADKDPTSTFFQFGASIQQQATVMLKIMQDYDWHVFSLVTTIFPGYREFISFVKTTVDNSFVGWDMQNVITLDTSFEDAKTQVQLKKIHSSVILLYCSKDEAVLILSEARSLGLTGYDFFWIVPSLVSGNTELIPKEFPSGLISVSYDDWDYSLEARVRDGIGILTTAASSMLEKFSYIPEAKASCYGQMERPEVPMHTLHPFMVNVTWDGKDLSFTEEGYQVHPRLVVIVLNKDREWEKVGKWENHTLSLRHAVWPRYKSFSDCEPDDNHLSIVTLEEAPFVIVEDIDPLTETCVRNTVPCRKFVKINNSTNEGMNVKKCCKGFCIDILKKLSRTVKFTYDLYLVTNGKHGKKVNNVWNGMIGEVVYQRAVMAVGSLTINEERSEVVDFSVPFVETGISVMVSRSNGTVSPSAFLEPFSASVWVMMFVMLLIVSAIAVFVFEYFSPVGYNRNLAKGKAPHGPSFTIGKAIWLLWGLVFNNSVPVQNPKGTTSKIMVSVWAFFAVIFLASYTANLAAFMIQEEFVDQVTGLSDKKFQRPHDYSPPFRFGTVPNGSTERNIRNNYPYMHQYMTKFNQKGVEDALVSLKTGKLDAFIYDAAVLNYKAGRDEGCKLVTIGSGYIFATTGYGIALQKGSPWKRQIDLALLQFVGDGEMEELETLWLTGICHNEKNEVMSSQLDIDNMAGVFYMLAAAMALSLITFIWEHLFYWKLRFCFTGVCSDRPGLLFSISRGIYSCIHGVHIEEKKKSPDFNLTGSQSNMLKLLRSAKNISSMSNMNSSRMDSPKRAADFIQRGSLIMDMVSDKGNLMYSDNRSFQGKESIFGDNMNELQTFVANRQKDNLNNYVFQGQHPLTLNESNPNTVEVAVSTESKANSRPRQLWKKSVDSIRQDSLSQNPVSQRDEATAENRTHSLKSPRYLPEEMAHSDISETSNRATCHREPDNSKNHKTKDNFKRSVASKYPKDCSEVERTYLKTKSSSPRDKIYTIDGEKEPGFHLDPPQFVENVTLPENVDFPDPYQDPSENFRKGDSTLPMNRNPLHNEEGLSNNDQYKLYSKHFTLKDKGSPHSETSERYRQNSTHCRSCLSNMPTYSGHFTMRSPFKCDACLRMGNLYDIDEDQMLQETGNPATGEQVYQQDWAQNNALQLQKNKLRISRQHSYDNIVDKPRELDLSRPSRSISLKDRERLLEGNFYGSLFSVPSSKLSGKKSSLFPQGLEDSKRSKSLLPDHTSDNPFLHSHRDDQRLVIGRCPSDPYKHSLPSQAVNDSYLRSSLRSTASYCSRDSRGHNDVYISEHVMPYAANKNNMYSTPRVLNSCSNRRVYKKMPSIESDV
T4 sequence (O15399 28-1336, species assumed, other chains not shown): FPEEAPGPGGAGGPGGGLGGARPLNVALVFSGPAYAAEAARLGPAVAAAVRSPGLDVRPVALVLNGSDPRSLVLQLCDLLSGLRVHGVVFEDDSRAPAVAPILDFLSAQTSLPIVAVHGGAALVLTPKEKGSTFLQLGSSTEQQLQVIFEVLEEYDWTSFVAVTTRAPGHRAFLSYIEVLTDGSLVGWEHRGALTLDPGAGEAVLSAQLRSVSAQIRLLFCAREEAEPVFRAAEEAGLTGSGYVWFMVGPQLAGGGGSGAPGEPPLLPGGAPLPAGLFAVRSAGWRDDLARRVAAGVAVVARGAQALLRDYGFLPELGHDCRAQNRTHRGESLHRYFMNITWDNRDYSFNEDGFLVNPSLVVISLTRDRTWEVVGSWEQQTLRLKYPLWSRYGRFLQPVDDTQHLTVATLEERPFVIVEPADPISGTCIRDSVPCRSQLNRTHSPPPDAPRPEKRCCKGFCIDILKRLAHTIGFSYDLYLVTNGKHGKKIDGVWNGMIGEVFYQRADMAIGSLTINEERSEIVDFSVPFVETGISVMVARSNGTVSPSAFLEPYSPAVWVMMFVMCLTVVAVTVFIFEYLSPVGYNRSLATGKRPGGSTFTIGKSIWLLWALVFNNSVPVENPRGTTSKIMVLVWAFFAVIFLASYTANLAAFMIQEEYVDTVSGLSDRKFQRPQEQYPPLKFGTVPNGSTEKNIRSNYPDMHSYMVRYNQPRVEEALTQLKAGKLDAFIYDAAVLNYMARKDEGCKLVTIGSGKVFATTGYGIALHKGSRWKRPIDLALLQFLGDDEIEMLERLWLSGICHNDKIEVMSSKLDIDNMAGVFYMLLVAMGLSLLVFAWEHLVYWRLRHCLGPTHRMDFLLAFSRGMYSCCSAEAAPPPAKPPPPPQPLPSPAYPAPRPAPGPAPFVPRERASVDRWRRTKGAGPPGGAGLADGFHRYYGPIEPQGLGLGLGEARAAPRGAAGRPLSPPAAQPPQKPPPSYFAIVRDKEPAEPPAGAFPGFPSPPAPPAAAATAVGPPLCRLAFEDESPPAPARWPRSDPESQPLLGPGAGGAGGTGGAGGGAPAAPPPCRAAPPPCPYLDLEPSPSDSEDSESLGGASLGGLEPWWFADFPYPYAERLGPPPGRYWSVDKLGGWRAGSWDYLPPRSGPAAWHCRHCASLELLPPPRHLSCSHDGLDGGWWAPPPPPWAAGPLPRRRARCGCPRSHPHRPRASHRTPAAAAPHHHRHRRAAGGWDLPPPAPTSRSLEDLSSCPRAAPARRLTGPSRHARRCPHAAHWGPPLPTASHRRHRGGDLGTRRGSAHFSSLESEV
T5 sequence (O15399 28-1336, species assumed, other chains not shown): as above

O=C1NCCCC[C@@]12CCCN2 [AU-2, (R)-1,7-diazaspiro[4.6]undecan-6-one]
NMDAR2A B: log EC50 [1]: −
Emax [1]: 0%
EC50 [2]: < 1 nM
Emax [2]: < 100%
EC50 [3]: < 1 nM
NMDAR2C A: % maximal [3H]MK-801 binding relative to 1 mM glycine [3]: + (<100%=+)
NMDAR2D A: % maximal [3H]MK-801 binding relative to 1 mM glycine [4]: + (<100%=+)
EC50 [5]: < 1 nM

CC(C)(C)OC(=O)N1CCCC12CCCNC2=O (single isomer, unassigned) [EV-1, tert-butyl 6-oxo-1,7-diazaspiro[4.5]decane-1-carboxylate]
EC50 ([1]; read-out: NMDAR2A B: log EC50 (converted)): < 1 nM
Emax [1]: < 100%
EC50 [2]: < 1 nM
Emax [2]: < 100%
EC50 [3]: < 1 nM
NMDAR2C A: % maximal [3H]MK-801 binding relative to 1 mM glycine [3]: + (<100%=+)
NMDAR2D A: % maximal [3H]MK-801 binding relative to 1 mM glycine [4]: + (<100%=+)
EC50 [5]: < 1 nM
AUC(0-t) [6]: 1270 ng·h/mL
clearance [6]: 26.2 mL/min/kg
half-life [6]: 25.2 min
Cmax [6]: 2730 ng/mL
Vd [6]: 0.72 L/kg
Tmax [7]: 15 min
AUC(0-t) [7]: 2850 ng·h/mL
bioavailability [7]: 45%
Cmax [7]: 3690 ng/mL
CSF Cmax [7]: 1414.8 ng/mL
Brain Cmax [7]: 1457.4 ng/mL
% reduction in float time ([8]; 1 h post-dose): 53%
Significance vs. vehicle ([8]; 1 h post-dose): Yes
% reduction in float time ([8]; 24 h post-dose): 45%
Significance vs. vehicle ([8]; 24 h post-dose): Yes
Microsomal (Human): percent of compound remaining [9]: 95%
Microsomal (Rat): percent of compound remaining [10]: 100%
Plasma (Human): percent of compound remaining [11]: 98%
Plasma (Rat): percent of compound remaining [12]: 94%

O=C1NCCCC12CCCN2 (stereo not drawn) [EU-2, 1,7-diazaspiro[4.5]decan-6-one]
NMDAR2A B: log EC50 [1]: −
EC50 [2]: < 1 nM
EC50 [3]: < 1 nM
NMDAR2C A: % maximal [3H]MK-801 binding relative to 1 mM glycine [3]: + (<100%=+)
NMDAR2D A: % maximal [3H]MK-801 binding relative to 1 mM glycine [4]: ++ (>100%=++)
EC50 [5]: < 1 nM
AUC(0-t) [6]: 4000 ng·h/mL
clearance [6]: 8.79 mL/min/kg
half-life [6]: 96.6 min
Cmax [6]: 2140 ng/mL
Vd [6]: 0.94 L/kg
Tmax [7]: 60 min
AUC(0-t) [7]: 4430 ng·h/mL
bioavailability [7]: 100%
Cmax [7]: 1860 ng/mL
CSF Cmax [7]: 436.7 ng/mL
Brain Cmax [7]: 593.1 ng/mL
% reduction in float time ([8]; 1 wk post-dose): 46%
Significance vs. vehicle ([8]; 1 wk post-dose): Yes
% reduction in float time ([8]; 1 h post-dose): 55%
Significance vs. vehicle ([8]; 1 h post-dose): Yes
Microsomal (Human): percent of compound remaining [9]: 100%
Microsomal (Rat): percent of compound remaining [10]: 94%
Plasma (Human): percent of compound remaining [11]: 74%
Plasma (Rat): percent of compound remaining [12]: 95%
